According to patent publication US11931345B2, “Thiazolidinedione analogs for the treatment of NAFLD and metabolic diseases” (Cirius Therapeutics, Inc., priority 2018, dated 2024):

Experiments:
[1] = system: diet-induced obese (60% HF diet) WT (fl/fl) and LS-MPC2-/- mice; assay: Intraperitoneal glucose tolerance test and plasma insulin in diet-induced obese WT and LS-MPC2-/- mice after a single dose; type: in vivo, mouse; conditions: for glucose tolerance (GTT): 20 h after a single dose of 30 mg/kg; for plasma insulin: single dose 30 mg/kg
Description: (§1) 8 week old WT and LS-MPC2−/− mice were fed a diet of 60% fat (Research Diets D12492) for 20 weeks to induce obesity and insulin resistance. Intraperitoneal glucose tolerance tests (GTT) were performed after a 4 h fast by injection of 1 g/kg D-glucose in saline i.p. to assess glucose tolerance. 3 days after the initial GTT, mice were randomized to receive a single gavage of either vehicle (1% CMC, 0.01% Tween-80) or 30 mg/kg MSDC-0602K. Plasma insulin was measured by Singulex assay and plasma ALT levels were measured by commercially-available kits (Teco Diagnostics). qPCR was performed by isolation of total RNA with RNA-Bee and reverse transcription with a high-capacity cDNA synthesis kit (Invitrogen). qPCR was performed on an Applied Biosystems real-time thermocycler.

[2] = system: diet-induced obese (60% HF diet) WT (fl/fl) and LS-MPC2-/- mice; assay: Markers of liver injury (plasma ALT, qPCR gene expression) in obese WT and LS-MPC2-/- mice after a single dose; type: in vivo, mouse
Description: as §1

[3] = system: uncoupling protein 1 (UCP1); assay: UCP1 expression (Western blot) in brown adipose precursors in vitro, with T3; type: cell-based; conditions: added to T3 0 to 30 nM; sensitivity and magnitude of response; FIG. 14
Excerpt: FIG. 14. Is a graphic representation of the data of thyroid hormone with MSDC-0602 in vitro.
The addition of the thyroid agonist not only increases the maximum response. […] The response measured here is increased expression of the uncoupling protein 1 (UCP1) on Western blot—a measure of differentiation of brown adipose cells.

[4] = system: ZDSD/Pco rats challenged with a high fat diet; assay: ZDSD/Pco rats on high fat diet: circulating glucose, insulin, OGTT; type: in vivo, rat; conditions: over 4 week treatment, compared to group 2 (control treatment on high fat diet); oral MSDC-0602 30 mg/kg, exenatide s.q. 1 μg
Description: (§2) Male ZDSD/Pco rats were maintained on standard chow 5008 (Purina) until treatment groups were switched to the high fat diet (Purina 5SCA). […] Control rats (given both vehicles) were maintained on the normal diet and the treatment groups were switched to the high fat diet as indicated. Glucose and insulin were measured weekly from tail vein samples. On day 36 an oral glucose tolerance test (OGTT); 2 g/kg) was conducted after a 16 hour fast. Glucose samples were taken at 0, 30, 60, 90, and 120 minutes; insulin was measured at 0 and 30 minutes and the change at 30 minutes is shown. Data are mean and SE; N=10. At sacrifice, the pancreas was fixed in formalin and shipped to MSU for histology and IHC. A range of anti-bodies were used to identify and quantify the presence of insulin, Ki67, collagen, CD3 lymphocytes, PDX-1 and Bcl2. An Image-Pro system was used with Image J to quantify the degree of positive staining. […] Five matched groups of ZDSD/Pco rats were selected at 14 weeks of age and then treated for 6 weeks. […] At sacrifice, the pancreas was removed, fixed, and stained for insulin, PDX1, and Ki67, as an index of proliferation.

[5] = system: pancreatic islets; assay: Pancreas histology and IHC of ZDSD/Pco rats (insulin, Ki67, PDX-1, Bcl2); type: in vivo, rat; conditions: pancreas at sacrifice; high fat diet; oral MSDC-0602 30 mg/kg, exenatide s.q. 1 μg
Description: as §2

[6] = system: serum miRNAs; assay: Serum miRNA sequencing in NASH (HTF-C) diet mice; type: in vivo, mouse
Description: To begin evaluating the exosome cargo of MSDC-0602K-treated mice, WT mice were fed with either a low fat (LF) control diet (Research Diets D09100304) or high trans-fat, fructose, cholesterol (HTF-C) diet composed of 40% trans-fat, 20% fructose, 2% cholesterol (Research Diets D09100301).
Total RNA was isolated from 400 μL of serum and small RNA sequencing was performed by adapter ligation, cDNA synthesis and size selection of 145-160 base pairs. Sequencing was then performed on an Illumina HiSeq3000.

[7] = phase 2 clinical trial, cited from earlier work
[8] = system: mouse model of NASH; conditions: effects require MPC expression in hepatocytes; cited from earlier work
[9] = biological target: T1, mitochondrial pyruvate carrier (MPC) (Homo sapiens, UniProt O95563+Q9Y5U8); conditions: cited from earlier work
T1 sequence (Q9Y5U8 1-109): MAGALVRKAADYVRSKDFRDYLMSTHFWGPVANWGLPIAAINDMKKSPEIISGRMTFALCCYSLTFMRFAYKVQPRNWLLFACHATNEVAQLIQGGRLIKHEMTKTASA
T1 sequence (O95563 1-127): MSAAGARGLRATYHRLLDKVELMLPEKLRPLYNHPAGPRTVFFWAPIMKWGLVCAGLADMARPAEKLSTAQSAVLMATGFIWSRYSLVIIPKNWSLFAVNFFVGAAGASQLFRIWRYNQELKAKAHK

Structure (SMILES)	glucose tolerance (GTT) ([1]; WT mice)	liver injury, major acute effects ([2]; acute dosing, effects require hepatocyte MPC)	increase of UCP1 expression, interaction with thyroid hormone [3]	glucose levels [4]	insulin staining [5]	number of islet cells [5]	glucose tolerance (GTT) ([1]; LS-MPC2-/- mice)	plasma insulin ([1]; LS-MPC2-/- mice)	plasma insulin ([1]; WT mice)	plasma ALT and liver injury gene expression, response to acute treatment ([2]; LS-MPC2-/- mice, single dose)	plasma ALT concentrations ([2]; WT mice, single dose, FIG. 11A)	gene expression for hepatic stellate cell activation and fibrotic scar formation ([2]; WT mice, single dose, FIG. 11B)	serum miRNAs altered in NASH model ([6]; HTF-C diet containing 331 ppm MSDC-0602, heat map of ~230 miRNAs)	serum miRNAs upregulated in NASH (mmu-miR-29c-3p, mmu-miR-802-3p, mmu-miR-802-5p) ([6]; HTF-C diet, FIGS. 13A-13C)	serum miRNAs down in NASH (mmu-miR-127-3p, mmu-miR-129-2-3p, mmu-miR-615-3p) ([6]; HTF-C diet, FIGS. 13D-13F)	serum miRNAs mmu-miR-129-5p, mmu-miR-205-5p ([6]; HTF-C diet, FIGS. 13G-13H)	circulating glucose ([7]; FIG. 1A)	circulating insulin ([7]; FIG. 1B)	liver damage [8]	MPC binding and modulation [9]
COc1cccc(C(=O)COc2ccc(CC3SC(=O)[N-]C3=O)cc2)c1.[K+] (stereo not shown) [MSDC-0602K]	improves glucose tolerance	attenuate liver injury	synergistic	–	–	–	–	–	–	–	–	–	–	–	–	–	–	–	–	–
COc1cccc(C(=O)COc2ccc(CC3SC(=O)NC3=O)cc2)c1 (stereo not shown) [MSDC-0602]	improved glucose tolerance	–	synergy (much larger response)	significantly reduced	increased	increased	no improvement in glucose tolerance	decreased	decreased	refractory	decreased	decreased	largely corrected	down	up	large effect	lowered	lowered	prevents and reverse liver damage	binds and modulates
